Source: patent publication US8937063B2 (Trustees of Tufts College, priority 2010, dated 2015)

Legend:
Format in all cases: in vivo, hamster
[1] = system: ApoAI mRNA; assay: qPCR of liver mRNA in HF/HS hamsters; details: ARI-001 2240 mg/kg oral 18 days; relative to mean of vehicle
Source text: (§1) Hamster livers and adipose were preared in manners similar to that described for ARI-001 concentration determination. Briefly, to prepare for analysis, a sample of liver was excised from the frozen mass, weighed, and homogenized with a tissue grinder followed by sonication in buffer. The solid materials were then removed by centrifugation. The resulting lysate was used in qPCR analysis to quantify the specific mRNA measured (vide infra) using primers designed for the specific sequences of interest. All mRNA quantities were normalized to vehicle-treated animal, and mRNA levels were expressed as a fold increase or decrease relative to vehicle-treated. […] During grinding, liquid nitrogen was added to ensure the sample of adipose remained solid. The ground sample was transferred to a tared tube to weigh total sample. This ground sample was treated with buffer and prepared for qPCR to quantify specific mRNA quantities.

[2] = system: SR-BI mRNA; assay: qPCR of liver mRNA in HF/HS hamsters; details: ARI-001 2240 mg/kg oral 18 days; relative to mean of vehicle
Source text: as §1

[3] = system: ABCA1 mRNA; assay: qPCR of liver mRNA in HF/HS hamsters; details: ARI-001 2240 mg/kg oral 18 days; relative to mean of vehicle
Source text: as §1

[4] = system: high fat-fed hamsters; assay: Plasma glucose in chronically dosed hamsters; details: ARI-001 1120 and 2240 mg/kg oral 18 days, vs vehicle
Experimental: (§2) These animals were dosed for 18 consecutive days, while being on a HF/HS diet for a total of nearly 5 weeks. We also examined the glucose levels in the plasma of these animals. For pharmacokinetic studies, we utilized wild type mice for both single and repeated administration study. Finally, pharmacokinetic studies were corroborated by data from single and repeated administration to monkeys.

[5] = system: high fat-fed hamsters; assay: Liver function tests (AST, ALT) in plasma of chronically dosed hamsters; details: vs vehicle
Experimental: as §2, with “In order to investigate this, we examined the common liver functional enzymes AST and ALT in the plasma of hamsters from experiment described above in Example 3. These” for “These”
This led to an investigation of liver function tests (AST, ALT) from plasma of hamsters dosed for 18 days with ARI-001. AST and ALT were measured using commercially available kits (Bio-Quant Diagnostic Kits, San Diego, Calif.). As expected, AST and ALT values from untreated hamsters (vehicle group) were very high, as the high fat diet leads to hepatomegaly and fatty liver. This disease state is reflected in the elevated AST and ALT levels.

[6] = system: CETP mRNA; assay: qPCR of liver and adipose mRNA in HF/HS hamsters; details: ARI-001 2240 mg/kg oral 18 days; relative to mean of vehicle
Source text: as §1

O=C(O)c1ccc(CCN2CCOCC2)nc1 [ARI-001]
Liver ApoAI mRNA per mg tissue [1]: 1.72 ± 0.24 fold-change
Liver SR-BI mRNA per mg tissue [2]: 1.50 ± 0.33 fold-change
Liver ABCA1 mRNA per mg tissue [3]: 1.54 ± 0.48 fold-change
plasma glucose [4]: neither dose of ARI-001 produced any significant change in glucose levels
AST ([5]; 2240 mg/kg oral 18 days): drastically reduced
ALT ([5]; 1120 and 2240 mg/kg oral 18 days, dose-dependent): similarly reduced
Adipose CETP mRNA per mg tissue [6]: 1.72 ± 0.70 fold-change
Liver CETP mRNA per mg tissue [6]: 2.05 ± 0.38 fold-change
